Assays:
Type in all cases: cell-based
[1] = test system: pAKT in MCF7 (measure of mTORC2 activity); experiment: AlphaLISA Ultra pAKT assay; conditions: Homo sapiens, MCF7, 2 h, MCF-7 cells, 2 hours compound incubation
Summary of the method: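 MCF7 cells, 16,000-20,000 per well, treated with compound for 2 h at 0.5% final DMSO, then lysed. Phospho-AKT, as a readout of mTORC2 activity, measured by AlphaLISA Ultra with acceptor beads and then donor beads, 2 h each.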

[2] = test system: pS6K1 in MCF7 (measure of mTORC1 activity); experiment: AlphaLISA Ultra pS6K1 assay; conditions: Homo sapiens, MCF7, 2 h, MCF-7 cells, 2 hours compound incubation
Summary of the method: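 MCF7 cells, refreshed medium 2 h, treated with compound 2 h at 0.5% DMSO final, then lysed. Phospho-S6K1 in lysates detected by AlphaLISA Ultra (acceptor beads 2 h, donor beads 2 h), read as Alpha signal on a multimode reader.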

[3] = test system: Glucose uptake in MCF-7 cells; experiment: Radioactive glucose uptake in MCF-7 cells; conditions: Homo sapiens, MCF7, 3H-2DG uptake, 20 mins
Description: Example 157: Radioactive Glucose Uptake in MCF-7 Cells
Assay Protocol • 1. Seed approximately 12,000 MCF-7 cells cultured without insulin per well in 96-well plates (BIOCOAT, #356690) and let the cells sit in hood for 30 min. (Cell culture medium: DMEM+10% FBS). • 2. Put the cell culture plates in TC incubator (5% CO2, 37° C.) and incubate overnight. • 3. Take out the cell plates and wash with prewarmed KRH buffer (37° C.) three times using BioTek plate washer. (KRH buffer preparation: 136 mM NaCl, 4.7 mM KCl, 1.25 mM MgCl2, 1.2 mM CaCl2, 20 mM HEPES, 0.1 mg/ml sodium pyruvate, 0.1% BSA, pH 7.4). • 4. Compound preparation and treatment: • a) Add 12 ul compound stock in 100% DMSO to the first column of Echo LDV plate • b) Serially dilute the compound solution in 100% DMSO (4 uL+8 uL DMSO) using Bravo for 9 doses • c) Dispense 350 nL compounds using Echo to the working plate • d) i) Without compound preincubation condition, dispense 116 uL KRH buffer containing tritiated 2-deoxy-D-glucose (3H-2DG) and 2-deoxy-D-glucose (2DG) to the working plate and mix. • ii. With compound preincubation condition, dispense 110 uL KRH buffer only to the working plates and mix • e) Keep the compound working plate at 37° C. incubator until use • 5. Discard the KRH buffer (cells were kept in KRH buffer for 10-15 min before 2-DG addition) and transfer 100 uL compound working solution out to the cell culture plate using Bravo. Incubate for 20 mins at 37° C. (2DG final at 0.2 mM, 3H-2DG at 10 uCi/mL). • 6. Add prewarmed 50 uL KRH buffer (37° C.) containing 60 mM cold 2DG to the wells to stop the 2DG uptake using Multidrop combi • 7. Wash the cells with prewarmed PBS three times using BioTek plate washer • 8. Add 50 uL lysis buffer (0.1 M NaOH) into the assay plate to lyse the cells using Bravo and shake at 800 rpm for 30 min. • 9. Mix and transfer 20 uL lysate to a new white plate (Corning, #3610) and add 200 uL MicroScint-20 using Bravo • 10. Shake the plate at 1000 rpm for 30 min and count in a MicroBeta plate reader.

| Structure (SMILES) | IC50 [1] | IC50 [2] | IC50 [3] |
| --- | --- | --- | --- |
| Cc1c(CN2CCN(c3ccccc3Cl)CC2)cc(C(=O)N2CCn3c(cc4ccccc43)C2)n1C [Example I-76, (4-((4-(2-chlorophenyl)piperazin-1-yl)methyl)-1,5-dimethyl-1H-pyrrol-2-yl)(3,4-dihydropyrazino[1,2-a]indol-2(1H)-yl)methanone] | > 5 µM | 1000 to 3000 nM | > 3000 nM |
| Cc1c(CN2CCN(c3ccccc3C#N)CC2)cc(C(=O)N2CCN(c3ccc(F)cn3)CC2)n1C [Example I-63] | > 0.3 µM | 10 to 1000 nM | 10 to 1000 nM |
| C[C@@H]1CN(c2ccccc2)CCN1C(=O)c1cc(CN2CCN(c3ccccc3Cl)CC2)cn1C [Example I-137, (R)-(4-((4-(2-chlorophenyl)piperazin-1-yl)methyl)-1-methyl-1H-pyrrol-2-yl)(2-methyl-4-phenylpiperazin-1-yl)methanone] | > 10 µM | 3000 to 10000 nM | – |
| O=C(c1cc(CN2CCN(c3ccccc3Cl)CC2)cn1CCCOC1CCCCO1)N1CCN(c2ccccc2)CC1 (centres unmarked) [Example I-147] | > 10 µM | 3000 to 10000 nM | – |
| COCCCn1cc(CN2CCN(c3ccccc3Cl)CC2)cc1C(=O)N1CCN(c2ccccc2)CC1 [Example I-145] | > 10 µM | 3000 to 10000 nM | – |
| Cc1c(CN2CCN(c3ccccc3C#N)CC2)cc(C(=O)N2CCCN(c3cccc(C#N)c3)CC2)n1C [Example I-45, 2-(4-((5-(4-(3-cyanophenyl)-1,4-diazepane-1-carbonyl)-1,2-dimethyl-1H-pyrrol-3-yl)methyl)piperazin-1-yl)benzonitrile] | > 10 µM | 1000 to 3000 nM | – |
| Cc1c(CN2CCN(c3ccccc3Cl)CC2)cc(C(=O)N2CCN(c3cc(F)ccc3C#N)CC2)n1C [Example I-85, 2-(4-(4-((4-(2-Chlorophenyl)piperazin-1-yl)methyl)-1,5-dimethyl-1H-pyrrole-2-carbonyl)piperazin-1-yl)-4-fluorobenzonitrile] | > 3 µM | 10 to 1000 nM | – |

The next lines start with the values.

| IC50 [1] | IC50 [2] | IC50 [3] | Structure (SMILES) |
| --- | --- | --- | --- |
| > 0.3 µM | 10 to 1000 nM | 10 to 1000 nM | Cc1c(CN2CCN(c3ccccc3Cl)CC2)cc(C(=O)N2CCN(c3ccc(F)cn3)CC2)n1C [Example I-72] |
| > 5 µM | 1000 to 3000 nM | – | Cc1c(CN2CCN(c3ccccc3Cl)CC2)cc(C(=O)N2CCN(c3cccc(F)c3)C[C@@H]2C)n1C [Example I-75, (S)-(4-((4-(2-chlorophenyl)piperazin-1-yl)methyl)-1,5-dimethyl-1H-pyrrol-2-yl)(4-(3-fluorophenyl)-2-methylpiperazin-1-yl)methanone 2,2,2-trifluoroacetate] |
| > 3 µM | 10 to 1000 nM | – | Cc1c(CN2CCN(c3ncccc3Cl)CC2)cc(C(=O)N2CCN(c3cccc(C#N)c3)C[C@@H]2C)n1C [Example I-99, (S)-3-(4-(4-((4-(3-chloropyridin-2-yl)piperazin-1-yl)methyl)-1,5-dimethyl-1H-pyrrole-2-carbonyl)-3-methylpiperazin-1-yl)benzonitrile] |
| > 1 µM | 10 to 1000 nM | – | Cc1c(CN2CCN(c3ccccc3Cl)CC2)cc(C(=O)N2CCN(c3cccc(C#N)c3)C[C@@H]2C)n1C [Example I-120, (S)-3-(4-(4-((4-(2-chlorophenyl)piperazin-1-yl)methyl)-1,5-dimethyl-1H-pyrrole-2-carbonyl)-3-methylpiperazin-1-yl)benzonitrile] |
| > 10 µM | 1000 to 3000 nM | – | Cc1c(CN2CCN(c3ccccc3Cl)CC2)cc(C(=O)N2CCn3ncc(-c4ccccc4)c3C2)n1C [Example I-35, (4-((4-(2-Chlorophenyl)piperazin-1-yl)methyl)-1,5-dimethyl-1H-pyrrol-2-yl)(3-phenyl-6,7-dihydropyrazolo[1,5-a]pyrazin-5(4H)-yl)methanone] |
| > 3 µM | 10 to 1000 nM | – | Cc1c(CN2CCN(c3ccccc3Cl)CC2)cc(C(=O)N2CCN(c3cc(F)c(F)c(F)c3)CC2)n1C [Example I-111, (4-((4-(2-Chlorophenyl)piperazin-1-yl)methyl)-1,5-dimethyl-1H-pyrrol-2-yl)(4-(3,4,5-trifluorophenyl)piperazin-1-yl)methanone] |
| > 1 µM | 10 to 1000 nM | – | Cc1c(CN2CCN(c3ccccc3C#N)CC2)cc(C(=O)N2CCN(c3ccc(F)cc3)CC2)n1C [Example I-55] |
| > 10 µM | 10 to 1000 nM | – | Cc1c(CN2CCN(c3ccccc3Cl)CC2)cc(C(=O)N2CCN(c3cccc(F)c3C#N)C[C@@H]2C)n1C [Example I-102, (S)-2-(4-(4-((4-(2-chlorophenyl)piperazin-1-yl)methyl)-1,5-dimethyl-1H-pyrrole-2-carbonyl)-3-methylpiperazin-1-yl)-6-fluorobenzonitrile] |
| > 3 µM | 10 to 1000 nM | – | Cc1c(CN2CCN(c3ccccc3Cl)CC2)cc(C(=O)N2CCN(c3cccc(F)c3C#N)CC2)n1C [Example I-107, 2-(4-(4-((4-(2-chlorophenyl)piperazin-1-yl)methyl)-1,5-dimethyl-1H-pyrrole-2-carbonyl)piperazin-1-yl)-6-fluorobenzonitrile] |

Reference: US20190389843A1, “PYRROLE mTORC INHIBITORS AND USES THEREOF” (Navitor Pharmaceuticals, Inc., priority 2016, published 2019)
